Data taken from paper PMC6982974, “Structure-Based Virtual Screening and Biological Evaluation of Peptide Inhibitors for Polo-Box Domain” (Molecules, 2019).
Like-named read-outs stand apart in the source and are kept apart here. Non-standard residues stand in square brackets, D forms with d. Residues, ends and D or L forms follow the SMILES beside them. Phe(3,4-Cl2) = N[C@@H](Cc1ccc(Cl)c(Cl)c1)C(=O)O; pT = C[C@@H](OP(=O)(O)O)[C@H](N)C(=O)O

Experiments:
Type in all cases: binding
human PLK1-PBD protein = biological target: T1, human PLK1-PBD protein (Homo sapiens, UniProt P53350); assay: Competitive fluorescence polarization (FP) assay, PLK1-PBD inhibition
T1 construct: a C-terminal polo-box domain (PBD)
Procedure: (§1) To test the binding ability of 9 peptides to the PLK1-PBD, a competitive fluorescence polarization (FP) assay was performed (Table S1).
(§2) A total of 20 μL of 200 nM human PLK1-PBD protein in phosphate-buffered saline (PBS, pH 7.4) was mixed with 20 μL of tested peptides at various concentrations in each well of a 384-well black bottom plate (Corning 3575, Thermo Scientific, Massachusetts, USA). Then, 20 μL of 30 nM probe was added to each well. The plate was shaken at room temperature for 40 min. The polarization values in millipolarization units (mP) were measured at excitation/emission wave lengths of 485/535 nm using a SpectraMax Paradigm Multi-Mode Detection Platform (Molecular-Devices, Tokyo, Japan). The percentage inhibition of the tested peptides at each concentration was defined as […] 1 − (Pobs − Pmin)/(Pmax − Pmin). Pmax is the polarization of the wells containing PLK1-PBD and the probe, Pmin is the polarization of the free probe, and the Pobs is the polarization for the wells containing the peptides with a series of concentrations. According to a previously reported method, FITC-GPMQSpTPLNG-OH was used as the fluorescein-labeled peptide, which was dissolved in dimethyl sulfoxide (DMSO) and the final optimized concentration was set at 20 nM. Phosphopeptides used for competition binding assays were dissolved in assay buffer. The buffer is made up of 50 mM NaCl, 10 mM Tris (pH 8.0), 1 mM EDTA and 0.1% Nonidet P-40. We further performed the sensitivity by synthesizing two fluorescent probes, FITC-GPMQTSpTPKNG-OH for PLK2-PBD and FITC-GPLATSpTPKNG-OH for PLK3-PBD, respectively. All experiments were performed in triplicate and the data were analyzed using GraphPad Prism 6.0 software (GraphPad Software, San Diego, CA, USA).

PLK2-PBD = biological target: T2, PLK2-PBD (Homo sapiens, UniProt Q9NYY3); assay: Competitive fluorescence polarization (FP) assay, selectivity vs PLK2-PBD
T2 sequence (Q9NYY3 355-685 limits assumed): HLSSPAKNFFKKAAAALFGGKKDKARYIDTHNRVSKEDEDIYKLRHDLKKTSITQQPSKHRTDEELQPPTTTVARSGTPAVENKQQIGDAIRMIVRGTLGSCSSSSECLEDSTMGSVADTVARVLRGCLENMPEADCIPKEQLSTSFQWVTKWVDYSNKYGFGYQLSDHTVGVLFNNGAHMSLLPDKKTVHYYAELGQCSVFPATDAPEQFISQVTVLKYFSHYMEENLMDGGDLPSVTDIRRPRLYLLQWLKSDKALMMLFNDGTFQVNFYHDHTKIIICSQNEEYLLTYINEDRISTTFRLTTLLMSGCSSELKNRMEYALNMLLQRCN
Procedure: as §1
as §2, with “According to a previously reported method, FITC-GPMQSpTPLNG-OH was used as the fluorescein-labeled peptide, which was dissolved in dimethyl sulfoxide (DMSO) and the final optimized concentration was set at 20 nM. Phosphopeptides used for competition binding assays were dissolved in assay buffer. The buffer is made up of 50 mM NaCl, 10 mM Tris (pH 8.0), 1 mM EDTA and 0.1% Nonidet P-40. We further performed the sensitivity by synthesizing two fluorescent probes, FITC-GPMQTSpTPKNG-OH for PLK2-PBD and FITC-GPLATSpTPKNG-OH for PLK3-PBD, respectively.” left out

PLK3-PBD = biological target: T3, PLK3-PBD (Homo sapiens, UniProt Q9H4B4); assay: Competitive fluorescence polarization (FP) assay, selectivity vs PLK3-PBD
T3 sequence (Q9H4B4 335-646 limits assumed): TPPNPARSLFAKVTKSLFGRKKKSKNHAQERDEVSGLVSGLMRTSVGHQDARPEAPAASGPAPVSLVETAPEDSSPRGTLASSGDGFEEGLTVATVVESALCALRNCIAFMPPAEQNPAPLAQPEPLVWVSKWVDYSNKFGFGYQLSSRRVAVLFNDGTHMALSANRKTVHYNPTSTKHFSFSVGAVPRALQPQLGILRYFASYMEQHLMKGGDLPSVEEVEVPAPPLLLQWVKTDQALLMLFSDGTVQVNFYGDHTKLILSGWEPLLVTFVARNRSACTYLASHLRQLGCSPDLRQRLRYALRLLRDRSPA
Procedure: as §1
as §2, with “According to a previously reported method, FITC-GPMQSpTPLNG-OH was used as the fluorescein-labeled peptide, which was dissolved in dimethyl sulfoxide (DMSO) and the final optimized concentration was set at 20 nM. Phosphopeptides used for competition binding assays were dissolved in assay buffer. The buffer is made up of 50 mM NaCl, 10 mM Tris (pH 8.0), 1 mM EDTA and 0.1% Nonidet P-40. We further performed the sensitivity by synthesizing two fluorescent probes, FITC-GPMQTSpTPKNG-OH for PLK2-PBD and FITC-GPLATSpTPKNG-OH for PLK3-PBD, respectively.” left out

[1] = probe FITC-GPMQSpTPLNG-OH, room temperature 40 min, performed in triplicate, read-out: IC50
[2] = at 1 μM inhibitor concentration

T1 sequence (P53350 326-603 limits assumed): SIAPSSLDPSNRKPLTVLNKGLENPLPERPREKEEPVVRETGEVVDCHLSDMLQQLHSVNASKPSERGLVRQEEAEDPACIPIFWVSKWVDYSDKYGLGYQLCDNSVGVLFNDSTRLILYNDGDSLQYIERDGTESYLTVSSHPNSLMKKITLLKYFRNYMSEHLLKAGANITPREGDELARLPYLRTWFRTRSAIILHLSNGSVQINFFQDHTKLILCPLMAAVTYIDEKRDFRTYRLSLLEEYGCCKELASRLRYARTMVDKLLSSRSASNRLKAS

SMILES | IC50 (human PLK1-PBD protein; [1]) [nM] | also measured
CC[C@H](C)[C@H](NC(=O)[C@H](C)NC(=O)[C@@H](NC(=O)[C@H](CO)NC(=O)[C@H](Cc1c[nH]cn1)NC(=O)[C@H](CC(C)C)NC(=O)[C@@H]1CCCN1C(=O)[C@@H]1CCCN1C(=O)[C@H](CCC(=O)O)NC(=O)[C@@H](N)Cc1ccc(O)cc1)[C@@H](C)OP(=O)(O)O)C(=O)NCC(=O)O [Peptide 1] (H-YEPPLHS[pT]AIG-OH) | 320 ± 20 | 
CC[C@H](C)[C@H](NC(=O)[C@H](C)NC(=O)[C@@H](NC(=O)[C@H](CO)NC(=O)[C@H](Cc1c[nH]cn1)NC(=O)[C@H](CC(C)C)NC(=O)[C@@H]1CCCN1C(=O)[C@@H]1CCCN1C(=O)[C@H](CC(=O)O)NC(=O)[C@@H](N)Cc1c[nH]c2ccccc12)[C@@H](C)OP(=O)(O)O)C(=O)O [Peptide 2] (H-WDPPLHS[pT]AI-OH) | 190 ± 10 | 
CC[C@H](C)[C@H](NC(=O)[C@H](C)NC(=O)[C@@H](NC(=O)[C@H](CO)NC(=O)[C@H](Cc1c[nH]cn1)NC(=O)[C@H](CC(C)C)NC(=O)[C@@H]1CCCN1C(=O)[C@@H]1CCCN1C(=O)[C@H](CCC(=O)O)NC(=O)[C@@H](N)Cc1ccccc1)[C@@H](C)OP(=O)(O)O)C(=O)O [Peptide 3] (H-FEPPLHS[pT]AI-OH) | 290 ± 20 | 
CC(C)C[C@H](NC(=O)[C@@H]1CCCN1C(=O)[C@@H]1CCCN1C(=O)[C@H](CCC(=O)O)NC(=O)[C@@H](N)Cc1ccccc1)C(=O)N[C@@H](Cc1c[nH]cn1)C(=O)N[C@@H](CO)C(=O)N[C@H](C(=O)N[C@@H](C)C(=O)NCC(=O)O)[C@@H](C)OP(=O)(O)O [Peptide 4] (H-FEPPLHS[pT]AG-OH) | 160 ± 20 | 
CC(C)C[C@H](NC(=O)[C@@H]1CCCN1C(=O)[C@@H]1CCCN1C(=O)[C@H](CC(N)=O)NC(=O)[C@@H](N)Cc1ccc(Cl)c(Cl)c1)C(=O)N[C@@H](Cc1c[nH]cn1)C(=O)N[C@@H](CO)C(=O)N[C@H](C(=O)N[C@@H](C)C(=O)O)[C@@H](C)OP(=O)(O)O [Peptide 5] (H-[Phe(3,4-Cl2)]NPPLHS[pT]A-OH) |  | IC50 (human PLK1-PBD protein; triplicates, mean ± SD of three data sets, read-out: IC50 PLK1-PBD): 70 nM; IC50 (PLK2-PBD; Table S2, probe FITC-GPMQTSpTPKNG-OH, triplicates): > 1000 nM; inhibition at 1 µM (PLK2-PBD; [2]): ≤ 10%; IC50 (PLK3-PBD; Table S2, probe FITC-GPLATSpTPKNG-OH, triplicates): > 1000 nM; inhibition at 1 µM (PLK3-PBD; [2]): ≤ 10%
CC(C)C[C@H](NC(=O)[C@@H]1CCCN1C(=O)[C@@H]1CCCN1C(=O)[C@H](C)NC(=O)[C@@H](N)Cc1c[nH]c2ccccc12)C(=O)N[C@@H](Cc1c[nH]cn1)C(=O)N[C@@H](CO)C(=O)N[C@H](C(=O)N[C@@H](C)C(=O)N[C@@H](CCCCN)C(=O)O)[C@@H](C)OP(=O)(O)O [Peptide 6] (H-WAPPLHS[pT]AK-OH) | 350 ± 110 | 
CC(C)C[C@H](NC(=O)[C@@H]1CCCN1C(=O)[C@@H]1CCCN1C(=O)[C@H](CCCCN)NC(=O)[C@@H](N)Cc1c[nH]c2ccccc12)C(=O)N[C@@H](Cc1c[nH]cn1)C(=O)N[C@@H](CO)C(=O)N[C@H](C(=O)N[C@@H](C)C(=O)NCC(=O)O)[C@@H](C)OP(=O)(O)O [Peptide 7] (H-WKPPLHS[pT]AG-OH) | 420 ± 200 | 
CC(C)C[C@H](NC(=O)[C@@H]1CCCN1C(=O)[C@@H]1CCCN1C(=O)[C@H](CCCCN)NC(=O)[C@@H](N)Cc1c[nH]cn1)C(=O)N[C@@H](Cc1c[nH]cn1)C(=O)N[C@@H](CO)C(=O)N[C@H](C(=O)N[C@@H](C)C(=O)O)[C@@H](C)OP(=O)(O)O [Peptide 8] (H-HKPPLHS[pT]A-OH) | 610 ± 320 | 
CC(C)C[C@H](NC(=O)[C@@H]1CCCN1C(=O)[C@@H]1CCCN1C(=O)[C@H](CCC(N)=O)NC(=O)[C@@H](N)Cc1c[nH]cn1)C(=O)N[C@@H](Cc1c[nH]cn1)C(=O)N[C@@H](CO)C(=O)N[C@H](C(=O)N[C@@H](C)C(=O)O)[C@@H](C)OP(=O)(O)O [Peptide 9] (H-HQPPLHS[pT]A-OH) | 720 ± 240 | 
CSCC[C@H](NC(=O)[C@@H]1CCCN1C(=O)CNC(=O)[C@H](C)NC(=O)[C@@H](N)CCSC)C(=O)N[C@@H](CCC(N)=O)C(=O)N[C@@H](CO)C(=O)N[C@H](C(=O)N1CCC[C@H]1C(=O)N[C@@H](CC(C)C)C(=O)N[C@@H](CC(N)=O)C(=O)NCC(=O)N[C@@H](C)C(=O)N[C@@H](CCCCN)C(=O)N[C@@H](CCCCN)C(=O)O)[C@@H](C)OP(=O)(O)O [Polo b oxtide, reference compound] (H-MAGPMQS[pT]PLNGAKK-OH) | 7920 ± 1030 | 
